Results on 4 compounds are retold here after ChEMBL document CHEMBL1201862, “PubChem BioAssay data set” (2004).

Active and inactive are the calls of the source.

Experiment [1] deals with Phosphomannomutase 2 (Homo sapiens, UniProt O15305). In words: Counter screen SAR assay for PMM2 inhibitors via a fluorescence intensity assay. [Related pubchem assays (depositor defined):AID1545, AID1574]. A general note: The purpose of a counterscreen is to sort out artefacts and off-target activity.
The target of experiment [2] is Phosphoethanolamine/phosphocholine phosphatase (Homo sapiens, UniProt Q8TCT1). In words: SAR assay for compounds that inhibit PHOSPHO1. [Related pubchem assays (depositor defined):AID1545, AID1565, AID1574].
Sequence of Phosphoethanolamine/phosphocholine phosphatase (Q8TCT1 whole entry): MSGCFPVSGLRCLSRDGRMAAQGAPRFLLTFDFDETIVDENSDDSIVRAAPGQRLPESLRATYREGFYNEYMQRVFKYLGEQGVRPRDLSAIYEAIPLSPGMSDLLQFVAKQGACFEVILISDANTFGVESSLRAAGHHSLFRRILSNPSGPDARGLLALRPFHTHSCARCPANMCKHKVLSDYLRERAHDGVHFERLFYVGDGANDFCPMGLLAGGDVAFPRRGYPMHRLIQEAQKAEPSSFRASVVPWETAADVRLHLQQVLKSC
Experiment [3] deals with T1, Mu-type opioid receptor (Homo sapiens, UniProt P35372). Put plainly: MOR agonists by imaging, SAR follow-up, image-based (AID 2352). It counts as functional.
T1 sequence (P35372 whole entry): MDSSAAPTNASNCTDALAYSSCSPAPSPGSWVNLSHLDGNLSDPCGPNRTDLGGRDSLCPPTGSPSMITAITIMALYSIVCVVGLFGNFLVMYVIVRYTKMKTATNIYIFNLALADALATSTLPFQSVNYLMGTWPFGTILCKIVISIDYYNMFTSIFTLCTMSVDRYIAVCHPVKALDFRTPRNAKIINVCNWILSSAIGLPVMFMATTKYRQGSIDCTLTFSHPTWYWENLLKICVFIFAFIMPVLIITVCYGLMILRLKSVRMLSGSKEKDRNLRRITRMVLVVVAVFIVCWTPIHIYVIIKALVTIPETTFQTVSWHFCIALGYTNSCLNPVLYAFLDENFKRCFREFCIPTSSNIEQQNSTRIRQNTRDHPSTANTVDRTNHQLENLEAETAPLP
For experiment [4], the target named is T2, Delta-type opioid receptor (Homo sapiens, UniProt P41143). Put plainly: DOR agonists, SAR follow-up, image-based (AID 2370). Format: functional.
T2 sequence (P41143 whole entry): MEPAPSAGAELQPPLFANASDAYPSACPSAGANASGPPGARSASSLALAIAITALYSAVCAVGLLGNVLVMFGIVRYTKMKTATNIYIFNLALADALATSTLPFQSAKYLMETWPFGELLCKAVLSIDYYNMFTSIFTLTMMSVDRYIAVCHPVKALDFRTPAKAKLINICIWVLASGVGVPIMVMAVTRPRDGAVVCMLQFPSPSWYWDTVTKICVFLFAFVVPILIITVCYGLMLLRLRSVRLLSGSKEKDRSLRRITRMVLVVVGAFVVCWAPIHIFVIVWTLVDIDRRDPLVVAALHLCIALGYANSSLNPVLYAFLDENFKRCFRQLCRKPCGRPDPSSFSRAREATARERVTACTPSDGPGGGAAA
The target of experiment [5] is T3, Kappa-type opioid receptor (Homo sapiens, UniProt P41145). In words: KOR antagonists by imaging, SAR follow-up, image-based (AID 2348). Format: functional.
T3 sequence (P41145 whole entry): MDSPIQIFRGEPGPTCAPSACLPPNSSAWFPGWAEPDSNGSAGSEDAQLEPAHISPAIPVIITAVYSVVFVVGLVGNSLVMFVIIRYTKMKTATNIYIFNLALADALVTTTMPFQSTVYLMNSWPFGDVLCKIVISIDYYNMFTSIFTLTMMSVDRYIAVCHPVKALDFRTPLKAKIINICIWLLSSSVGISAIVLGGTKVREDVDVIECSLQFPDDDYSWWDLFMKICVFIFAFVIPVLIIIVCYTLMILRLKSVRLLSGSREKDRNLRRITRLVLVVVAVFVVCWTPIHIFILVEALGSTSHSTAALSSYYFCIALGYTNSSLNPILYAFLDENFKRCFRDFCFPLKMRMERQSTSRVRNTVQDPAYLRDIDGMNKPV
In experiment [6] the target is T1, Mu-type opioid receptor. In words: MOR antagonists, SAR follow-up, image-based (AID 2420).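 Note: compounds added before stimulation of receptor with agonist DAMGO.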 It counts as functional.
Experiment [7] deals with T3, Kappa-type opioid receptor. Put plainly: KOR agonist analogs, imaging readout, SAR follow-up, image-based (AID 2359). It counts as functional.
The target in experiment [8] is Tyrosine-protein phosphatase non-receptor type 7 (Homo sapiens, UniProt P35236). In words: SAR analysis of chemical inhibitors of HePTP using a Fluorescent assay - Set 2. [Related pubchem assays (depositor defined):AID1059, AID1077, AID1661, AID2085, AID521]. Format: functional.
Sequence of Tyrosine-protein phosphatase non-receptor type 7 (P35236 whole entry): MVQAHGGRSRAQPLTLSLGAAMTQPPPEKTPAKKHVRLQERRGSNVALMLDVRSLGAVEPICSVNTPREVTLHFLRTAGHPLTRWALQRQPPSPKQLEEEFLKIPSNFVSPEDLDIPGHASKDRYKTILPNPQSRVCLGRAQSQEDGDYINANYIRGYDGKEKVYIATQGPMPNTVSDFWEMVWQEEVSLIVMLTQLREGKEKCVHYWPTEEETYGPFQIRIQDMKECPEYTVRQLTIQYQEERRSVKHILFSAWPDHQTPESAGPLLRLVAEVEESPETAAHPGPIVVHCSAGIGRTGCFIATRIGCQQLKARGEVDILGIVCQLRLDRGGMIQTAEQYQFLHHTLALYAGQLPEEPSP
The target of experiment [9] is Dual specificity protein phosphatase 3 (Homo sapiens, UniProt P51452). In words: SAR VHR1 Fluorescent Assay for In Vitro dose response studies Set 2. [Related pubchem assays (depositor defined):AID1654, AID1661, AID1878]. It counts as functional.
Sequence of Dual specificity protein phosphatase 3 (P51452 whole entry): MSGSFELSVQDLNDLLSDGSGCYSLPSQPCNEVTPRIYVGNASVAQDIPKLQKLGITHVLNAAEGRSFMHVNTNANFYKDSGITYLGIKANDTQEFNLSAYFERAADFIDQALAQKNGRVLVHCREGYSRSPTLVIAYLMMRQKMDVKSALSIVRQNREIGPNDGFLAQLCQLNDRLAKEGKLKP
The target in experiment [10] is T2, Delta-type opioid receptor. In words: DOR antagonists, SAR follow-up, image-based (AID 2357). It counts as functional.
For experiment [11], the target named is T3, Kappa-type opioid receptor. In words: kappa opioid receptor blockers, cell-based, luminescence, beta-arrestin, SAR follow-up (AID 2285). It counts as functional.
Experiment [12] deals with HEK293. In words: NOD1 signaling inhibitors, primary screen, cell-based, luminescence, uHTS (AID 1578). Format: functional. The settings on record: Homo sapiens.
The subject of experiment [13] is HEK293. Put plainly: cells. Format: functional, cell-based. As to conditions: Homo sapiens.
A short description of experiment [14]: cells. It counts as functional, cell-based.
Experiment [15] relates to HEK293. Put plainly: cells. It counts as functional, cell-based. As to conditions: Homo sapiens. The source holds these as a separate data set.
The target of experiment [16] is Nucleotide-binding oligomerization domain-containing protein 2 (Homo sapiens, UniProt Q9HC29). In words: NOD2 signaling inhibitors, cell-based, luminescence, uHTS, HEK293 (AID 1566). It counts as functional.
Sequence of Nucleotide-binding oligomerization domain-containing protein 2 (Q9HC29 whole entry, the tested form may be a part): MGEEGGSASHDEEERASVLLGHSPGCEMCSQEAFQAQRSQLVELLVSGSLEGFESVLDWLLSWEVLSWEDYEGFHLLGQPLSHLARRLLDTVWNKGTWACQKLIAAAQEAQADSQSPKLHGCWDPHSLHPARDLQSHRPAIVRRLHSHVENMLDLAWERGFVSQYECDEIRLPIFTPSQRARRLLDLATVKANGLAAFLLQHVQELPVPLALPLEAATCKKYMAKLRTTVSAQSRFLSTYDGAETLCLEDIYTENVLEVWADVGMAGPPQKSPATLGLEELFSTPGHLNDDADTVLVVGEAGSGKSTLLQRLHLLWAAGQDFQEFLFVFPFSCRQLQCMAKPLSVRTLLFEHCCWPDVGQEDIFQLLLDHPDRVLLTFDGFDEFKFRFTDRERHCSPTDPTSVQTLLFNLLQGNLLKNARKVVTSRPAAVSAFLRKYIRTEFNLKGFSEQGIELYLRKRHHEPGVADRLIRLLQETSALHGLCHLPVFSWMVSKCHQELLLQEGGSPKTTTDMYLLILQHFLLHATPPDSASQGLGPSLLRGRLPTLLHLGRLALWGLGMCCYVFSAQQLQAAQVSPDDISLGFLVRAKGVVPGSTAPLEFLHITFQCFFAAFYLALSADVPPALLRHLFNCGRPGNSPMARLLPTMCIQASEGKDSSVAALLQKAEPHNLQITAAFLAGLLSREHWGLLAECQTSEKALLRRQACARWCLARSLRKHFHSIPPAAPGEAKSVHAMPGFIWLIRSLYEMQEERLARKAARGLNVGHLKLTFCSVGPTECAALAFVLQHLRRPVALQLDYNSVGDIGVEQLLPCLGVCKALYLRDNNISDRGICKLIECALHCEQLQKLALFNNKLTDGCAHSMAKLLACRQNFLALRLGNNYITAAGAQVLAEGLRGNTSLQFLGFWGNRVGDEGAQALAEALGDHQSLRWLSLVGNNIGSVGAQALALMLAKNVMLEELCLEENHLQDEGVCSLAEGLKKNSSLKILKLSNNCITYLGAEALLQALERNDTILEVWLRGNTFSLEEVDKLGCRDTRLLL
In experiment [17] the test system is HEK293. Put plainly: NOD2 signaling inhibitors in MDP-stimulated cells, cell-based, uHTS, luminescence (AID 2001). It counts as functional. As to conditions: Homo sapiens.
Experiment [18] relates to HEK293. Put plainly: cells. It counts as functional, cell-based. As to conditions: Homo sapiens. This is another data set of the same source.
A short description of experiment [19]: cells. Format: functional, cell-based. This is another data set of the same source.
Experiment [20] deals with Streptococcus sp. 'group A'. In words: growth inhibition of control SK(-) GAS strain, dose response, counter-screen for streptokinase expression inhibitor project, luminescence, kanamycin, BacTiterGlo, confirmation (AID 1900). It counts as functional, organism-based.
Experiment [21] deals with BJ. Put plainly: cytotoxicity toward BJ-TERT fibroblasts, dose response, cell-based, RAS-independent, luminescence (AID 1933). As to conditions: Homo sapiens. It counts as functional.
Experiment [22] relates to BJ. In words: cells. Format: functional, cell-based. The settings on record: Homo sapiens.
Experiment [23] deals with BJ. In words: cytotoxicity toward BJ-TERT-LT-ST fibroblasts, dose response, cell-based, RAS-independent, luminescence (AID 1935).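 Note: BJ fibroblasts immortalized with TERT plus LT and ST oncogenes.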 Format: functional. As to conditions: Homo sapiens.
A short description of experiment [24]: cytotoxicity toward DRD oncogenic fibroblasts, dose response, cell-based, non-viral oncogenic, luminescence (AID 1934). It counts as functional. The settings on record: Homo sapiens.
Experiment [25] has as its system Streptococcus. In words: Group A Streptococcus viability loss, dose response, counter-screen for streptokinase expression inhibitor project, luminescence, BacTiterGlo (AID 1915).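 Note: potency for reduction of bacterial viability or growth.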 Format: functional, organism-based.
Experiment [26] in a line: THP-1 cell cytotoxicity, dose response, cytotoxicity control for non-replicating M. tuberculosis project (AID 489025). Format: functional.
Experiment [27] is described as follows: HepG2 cell cytotoxicity, dose response, cytotoxicity control for non-replicating M. tuberculosis project (AID 489018). Format: functional. The settings on record: Mycobacterium tuberculosis.
Experiment [28] in a line: Vero E6 cell cytotoxicity, dose response, cytotoxicity control for non-replicating M. tuberculosis project, secondary assay (AID 492998). Format: functional, VeroE6. The settings on record: Vero C1008.
Experiment [29] has as its target T4, Microphthalmia-associated transcription factor (Homo sapiens, UniProt O75030).
T4 sequence (O75030 whole entry): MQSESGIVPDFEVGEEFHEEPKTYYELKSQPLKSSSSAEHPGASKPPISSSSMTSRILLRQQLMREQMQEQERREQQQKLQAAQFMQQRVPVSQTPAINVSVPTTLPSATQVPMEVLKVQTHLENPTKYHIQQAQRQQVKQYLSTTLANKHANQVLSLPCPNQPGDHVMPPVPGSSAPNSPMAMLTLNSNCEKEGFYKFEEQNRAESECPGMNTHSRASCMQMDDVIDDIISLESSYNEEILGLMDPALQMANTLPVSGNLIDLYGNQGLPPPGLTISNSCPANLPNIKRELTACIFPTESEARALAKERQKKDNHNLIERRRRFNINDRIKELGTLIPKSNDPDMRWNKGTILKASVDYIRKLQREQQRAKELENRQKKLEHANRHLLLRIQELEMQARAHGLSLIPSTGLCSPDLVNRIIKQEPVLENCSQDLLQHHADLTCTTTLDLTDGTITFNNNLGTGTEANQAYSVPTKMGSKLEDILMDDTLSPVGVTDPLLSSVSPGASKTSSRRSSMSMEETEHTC
In words: TRPM1 promoter luciferase signal decrease, dose response, MITF inhibitor project, cell-based, SK-MEL-5, cherry-picked, set 3 (AID 493073).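 Note: SK-MEL-5 melanoma cells with luciferase driven by the MITF target TRPM1 promoter.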 It counts as functional.

The nature of experiment [30]: cells. It counts as functional.
Experiment [31] deals with BJ. Put plainly: cytotoxicity toward Ras-transformed BJeLR fibroblasts, dose response, cell-based, alamar blue fluorescence, cherrypicked samples (AID 2631).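 Note: confirmatory dose-response assay in RAS-dependent BJ fibroblasts engineered with TERT, LT and ST, with cytotoxicity read by fluorescence.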 It counts as functional. As to conditions: Homo sapiens. On the technique in general: Alamar Blue is a resazurin reagent that responds to reducing activity.
The subject of experiment [32] is INS1. In words: beta cell apoptosis inhibitors, cytokine rescue, dose response, luminescence, retest (AID 449756).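 Note: cell death triggered by IL-1 beta plus TNF-alpha plus IFN-gamma mixture; protective hits raise ATP signal compared with cytokine alone wells.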 Format: functional, cell-based. As to conditions: Rattus norvegicus.
In experiment [33] the test system is Vero. Put plainly: cells. It counts as functional. As to conditions: Chlorocebus sabaeus.

Sequence of Phosphomannomutase 2 (O15305 whole entry): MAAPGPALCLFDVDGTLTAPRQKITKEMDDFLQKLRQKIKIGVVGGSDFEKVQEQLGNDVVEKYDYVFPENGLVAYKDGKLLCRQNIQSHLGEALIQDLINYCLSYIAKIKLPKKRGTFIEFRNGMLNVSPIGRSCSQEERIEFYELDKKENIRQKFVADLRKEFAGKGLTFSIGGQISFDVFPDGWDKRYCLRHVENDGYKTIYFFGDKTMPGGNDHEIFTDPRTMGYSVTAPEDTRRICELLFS

As usually defined, the IC50 is the midpoint of a concentration-inhibition curve. Turning to `CC(C)(C)c1ccc(-n2sc3ccccc3c2=O)cc1`, the figures for the IC50 in experiment [1] and in experiment [2] were 82.5 µM (active) and 54.3 µM (inactive), respectively.
Broadly, the EC50 is the concentration that produces a half-maximal response. For `O=C(NC(NC(=S)Nc1ccccc1)C(Cl)(Cl)Cl)OCc1ccccc1` (stereo not given), the EC50 in experiment [3], in [4] and in experiment [7] was > 32 µM (inactive) each time. The IC50 is 17.6 µM (inactive) in experiment [5]; > 32 µM (inactive) in [6]; > 100 µM (inactive) in experiment [8]; > 100 µM (inactive) in experiment [9]; > 32 µM (inactive) in [10]; > 10 µM (inactive) in experiment [11].
Consider `O=C(N/N=C/c1ccccn1)c1ccc(Cl)cc1`, for which the EC50 in experiment [12] is > 20 µM (inactive); in [14], > 350 µM (not active); in [16], > 20 µM (inactive); in experiment [19], > 350 µM (not active). Besides, the IC50 in [13] is > 20 µM (inactive); in experiment [15] it was > 20 µM (inactive); in experiment [17] it was 7.14 µM (inactive); in experiment [18], > 20 µM (inactive).
For orientation: CC50 means the concentration that lowers cell viability or growth by half. A word on the AC50: it is the concentration giving half of the maximal activity seen. As to `COc1cccc(C(=O)N/N=C(/c2ccccc2)c2ccccn2)c1`, the EC50 is 14.2 µM (active) in experiment [20]; 2.69 µM (active) in experiment [21]; 9.7 µM (active) in [14]; 4.58 µM (active) in experiment [22]; > 350 µM (not active) in [19]; 3.26 µM (active) in experiment [23]. The EC50 in [24] was 2.82 µM (active); in [25] it was 18 µM (active); in experiment [31], 1.45 µM (active). The CC50 in experiment [26] is 0.844 µM (active); in [27], 11.3 µM (active); in [28], 1.98 µM (active); in [33], 2.36 µM (active). For the same compound, the AC50 was 5.8 µM (active) in experiment [29] and 0.745 µM (active) in experiment [32]. Moreover, the IC50 in [30] was 2.04 µM (active).
